Measurements as given in patent publication US20140090094A1, “MODULATORS OF SLC22A7” (BAYER INTELLECTUAL PROPERTY GmbH, priority 2011, published 2014).

Columns and labels:
[1] = target: T1, OAT2h (Homo sapiens, UniProt Q9Y694); assay: intracellular glutamate content of 293 cells expressing OAT2h versus uninduced control cells; type: cell-based; conditions: n=2
T1 construct: expressed in transfected cells; host or cells: 293 cells (HEK-293), pEBTetD/OAT2h, doxycycline-inducible
T1 sequence (Q9Y694 1-546 isoform Q9Y694-2): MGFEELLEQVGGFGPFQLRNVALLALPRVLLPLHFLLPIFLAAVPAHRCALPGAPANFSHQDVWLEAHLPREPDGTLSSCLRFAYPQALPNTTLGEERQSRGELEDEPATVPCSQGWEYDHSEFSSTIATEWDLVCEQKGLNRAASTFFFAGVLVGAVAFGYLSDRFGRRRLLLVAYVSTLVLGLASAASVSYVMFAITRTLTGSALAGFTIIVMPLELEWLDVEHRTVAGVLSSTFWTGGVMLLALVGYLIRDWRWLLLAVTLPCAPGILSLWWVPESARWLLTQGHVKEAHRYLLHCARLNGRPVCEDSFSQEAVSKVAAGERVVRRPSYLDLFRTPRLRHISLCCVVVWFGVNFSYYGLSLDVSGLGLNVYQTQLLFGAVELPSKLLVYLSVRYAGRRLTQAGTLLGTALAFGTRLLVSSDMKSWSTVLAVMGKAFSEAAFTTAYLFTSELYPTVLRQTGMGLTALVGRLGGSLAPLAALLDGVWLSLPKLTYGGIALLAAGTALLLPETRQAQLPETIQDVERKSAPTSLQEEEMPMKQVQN

[2] = target: T2, OAT2r (Rattus norvegicus, UniProt Q5RLM2); assay: time course of uptake into OAT2r-expressing 293 cells; type: cell-based; conditions: for clearance kin: 10 μmol/l unlabeled substrate, 37° C., OAT2r-expressing cells; for factor by which expression of OAT2r increased the clearance: kin on versus off
T2 construct: expressed in transfected cells
T2 sequence (Q5RLM2 1-535): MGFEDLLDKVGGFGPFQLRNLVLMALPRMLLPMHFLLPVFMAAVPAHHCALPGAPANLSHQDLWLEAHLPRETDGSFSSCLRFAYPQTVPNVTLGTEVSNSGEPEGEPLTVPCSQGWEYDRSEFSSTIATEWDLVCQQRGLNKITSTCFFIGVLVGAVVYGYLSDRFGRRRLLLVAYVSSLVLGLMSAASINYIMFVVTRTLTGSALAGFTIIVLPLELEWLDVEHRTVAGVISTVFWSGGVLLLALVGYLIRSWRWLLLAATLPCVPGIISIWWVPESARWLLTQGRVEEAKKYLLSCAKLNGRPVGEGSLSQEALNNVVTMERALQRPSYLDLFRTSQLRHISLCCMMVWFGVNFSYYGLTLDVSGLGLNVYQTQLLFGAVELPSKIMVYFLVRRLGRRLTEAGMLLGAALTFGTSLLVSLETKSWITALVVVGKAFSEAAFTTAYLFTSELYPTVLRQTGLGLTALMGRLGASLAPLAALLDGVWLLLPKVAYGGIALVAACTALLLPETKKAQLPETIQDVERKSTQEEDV

[3] = system: 293 cells; assay: uptake into uninduced control 293 cells (expression off); type: cell-based, human; conditions: for clearance kin: 10 μmol/l unlabeled substrate
Experimental: Time course of trigonelline uptake. Cells grown in dishes were incubated at 37° C. with 10 μmol/l unlabeled trigonelline in uptake buffer for the indicated periods, washed, and lysed. The function for non-linear regression was y=y0+kin/kout*cout*(1−exp(−kout*x)); parameter y0 allows for trigonelline accumulation from the culture medium.
293 cells (ATCC CRL-1573; also known as HEK-293 cells), a transformed cell line derived from human embryonic kidney, were grown at 37° C. in a humidified atmosphere (5% CO2) in plastic culture flasks (Falcon 3112, Becton Dickinson, Heidelberg, Germany). The growth medium was Dulbecco's Modified Eagle Medium (Life Technologies 31885-023, Invitrogen, Karlsruhe, Germany) supplemented with 10% fetal calf serum (PAA Laboratories, Cölbe, Germany). Medium was changed every 2-3 days and the culture was split every 5 days. Stably transfected cell lines were generated as reported previously (Bach M et al. FEBS Journal 2007; 274:783-790.). As there is no integration of vector pEBTetD into the genome, clonal isolation of transfected cells is not necessary; we thus use cell pools rather than single cell clones. Cell culture medium always contained 3 μg/ml puromycin (PAA Laboratories) to ascertain plasmid maintenance. To turn on protein expression, cells were cultivated for at least 20 h in regular growth medium supplemented with 1 μg/ml doxycycline (195044, MP Biomedicals, Eschwege, Germany).
For measurement of solute uptake, cells were grown in surface culture on 60 mm polystyrol dishes (Nunclon 150288, Nunc, Roskilde, Denmark) precoated with 0.1 g/l poly-L-ornithine in 0.15 M boric acid-NaOH, pH 8.4. Cells were used for uptake experiments at a confluence of at least 70%. Uptake was measured at 37° C. Uptake buffer contains 125 mmol/l NaCl, 25 mmol/l HEPES-NaOH pH 7.4, 5.6 mmol/l (+)glucose, 4.8 mmol/l KCl, 1.2 mmol/l KH2PO4, 1.2 mmol/l CaCl2, and 1.2 mmol/l MgSO4. In glutamate efflux experiments, uptake buffer without KH2PO4 was used to avoid MS interference. After preincubation for at least 20 minutes in 4 ml of uptake buffer, the buffer was replaced with 2 ml of substrate in uptake buffer. The total substrate concentration if not indicated otherwise was 0.1 μmol/l for radiotracer assays and 10 μmol/l for unlabeled compounds. Incubation was stopped after 1 min by rinsing the cells four times each with 4 ml ice-cold uptake buffer. Radioactivity was determined, after cell lysis with 0.1% v/v Triton X-100 in 5 mmol/l TRIS-HCl pH 7.4, by liquid scintillation counting. For LCelectrospray ionization-MS/MS analysis, cells were lysed with methanol and stored at −20° C.
After centrifugation (1 min, 16000×g, 20° C.) of thawed lysates, 100 μl of the supernatant was mixed with either 10 μl unlabeled MPP+ iodide (0.5 ng/μl) or biphenyl-4-carboxylic acid (Sigma-Aldrich) as internal standard. Of this mixture, […] were analyzed by LCMS/MS on a triple quadrupole mass spectrometer (4000 Q TRAP, Applied Biosystems, Darmstadt, Germany). […] Atmospheric pressure ionization with positive or negative electrospray was used. For quantification (scan time 150 ms), the optimal collision energy for argon-induced fragmentation in the second quadrupole was determined for each analyte. […] Linear calibration curves were constructed from at least six standards which were prepared using control cell lysates as solvent. Sample analyte content was calculated from the analyte response ratio and the slope of the calibration curve, obtained by linear regression. With LC-MS quantitation, solute content of cell lysates was determined for 4 conditions (paired dishes, incubation time 1 min): a) transporter expression on, uptake buffer; b) expression off, uptake buffer; c) expression on, substrate in uptake buffer; d) expression off, substrate in uptake buffer. Acute uptake mediated by heterologously expressed carrier was then calculated as (c−a)−(d−b). This approach takes into account endogenous solute content and non-specific uptake.

[4] = time course, uninduced control cells

| SMILES | intracellular glutamate content versus uninduced control cells (factor f) [1] | intracellular plateau ([2]; 10 μmol/l unlabeled orotic acid, after 60 min, LC-MS/MS) [nmol/mg protein] | intracellular concentration corresponding to plateau ([2]; calculated with an intracellular water space of 6.7 μl/mg protein) [µmol/L] | clearance kin ([2]; time course) [μl min-1 mg protein-1] | factor by which expression of OAT2r increased the clearance ([2]; time course) | kout ([2]; time course, unlabeled orotic acid, expression on) [min⁻¹] | intracellular content ([3]; 10 μmol/l unlabeled orotic acid, after 60 min, cells lacking the transporter) [nmol/mg protein] | cell content directly after washing ([3]; 1 h, 37° C. preloading with 100 μmol/l 3H-orotic acid, uninduced control cells, n=4) [nmol/mg protein] | non-specific uptake into control cells, slope ([3]; saturation experiment, 1 min, expression off) [μl min-1 mg protein-1] | clearance kin [3, 4] [μl min-1 mg protein-1] | kout ([3]; time course, unlabeled orotic acid, expression off) [min⁻¹] |
| --- | --- | --- | --- | --- | --- | --- | --- | --- | --- | --- | --- |
| N[C@@H](CCC(=O)O)C(=O)O [glutamate] | 0.60±0.09 | – | – | – | – | – | – | – | – | – | – |
| O=C(O)c1cc(=O)[nH]c(=O)[nH]1 [orotic acid] | – | 5.8 | 870 | 50.1±6.4 | 86 | 0.09 ± 0.01 | 0.05 | 3.5±0.1 | 0.56 | 0.58±0.12 | 0.12 ± 0.03 |
| C[n+]1cccc(C(=O)[O-])c1 [trigonelline] | – | – | – | 5.1±1.4 | ~50 | – | – | – | – | 0.11±0.01 | – |
